Test results from the supplement of paper PMC10307832.

Key:
Assay in all cases: relative viability (nuclei count vs DMSO), 5 days (fraction); higher = more cells survive
[1] = compound: CCn1c(-c2nonc2N)nc2c(C#CC(C)(C)O)ncc(OC[C@H]3CCCNC3)c21 + CS(=O)(=O)N1CCN(Cc2cc3nc(-c4cccc5[nH]ncc45)nc(N4CCOCC4)c3s2)CC1 [Pictilisib] (partner 1 µM)
Summary of the method: (§1)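 Each reported value is a median over duplicate plates. It expresses relative viability: treated-well nuclei count divided by vehicle-well nuclei count. Lung cancer cell lines in 1536-well plates were dosed by pin tool a day after seeding, alone with one drug or with a fixed anchor-drug dose plus five library-drug doses (not always all listed) in √10 steps, and nuclei were counted after 5 days.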

[2] = compound: CCOC1=CC=CC=C1N=NC2=C(NN(C2=O)C3=NC(=CS3)C4=CC=CC=C4)C [BAM7] + O=C(c1cc(Cc2n[nH]c(=O)c3ccccc23)ccc1F)N1CCN(C(=O)C2CC2)CC1 [Olaparib] (partner 8 µM)
Summary of the method: as §1

[3] = compound: CCOC1=CC=CC=C1N=NC2=C(NN(C2=O)C3=NC(=CS3)C4=CC=CC=C4)C [BAM7] + CCNC(=O)c1noc(-c2cc(C(C)C)c(O)cc2O)c1-c1ccc(CN2CCOCC2)cc1 [Luminespib] (partner 0.01 µM)
Summary of the method: as §1

[4] = compound: CCn1c(-c2nonc2N)nc2c(C#CC(C)(C)O)ncc(OC[C@H]3CCCNC3)c21 + NC(=O)Nc1cc(-c2cccc(F)c2)sc1C(=O)N[C@H]1CCCNC1 [AZD7762] (partner 0.2 µM)
Summary of the method: as §1

Row | Cell Line | relative viability ([1]; first compound 0.01 µM) | relative viability ([1]; first compound 0.03162 µM) | relative viability ([1]; first compound 0.1 µM) | relative viability ([1]; first compound 0.3162 µM) | relative viability ([1]; first compound 1 µM) | relative viability ([2]; first compound 0.5 µM) | relative viability ([2]; first compound 5 µM) | relative viability ([2]; first compound 15.81 µM) | relative viability ([2]; first compound 50 µM) | relative viability ([3]; first compound 0.5 µM) | relative viability ([3]; first compound 5 µM) | relative viability ([3]; first compound 15.81 µM) | relative viability ([3]; first compound 50 µM) | relative viability ([4]; first compound 0.01 µM) | relative viability ([4]; first compound 0.03162 µM) | relative viability ([4]; first compound 0.1 µM) | relative viability ([4]; first compound 0.3162 µM) | relative viability ([4]; first compound 1 µM)
1 | NCI-H1975 | 0.335 | 0.255 | 0.314 | 0.235 | 0.261 | 0.498 | 0.617 | 0.393 | 0.602 | 0.206 | 0.219 | 0.209 | 0.189 | 0.663 | 0.694 | 0.811 | 0.695 | 0.641
2 | CAL-12T | 0.327 | 0.374 | 0.351 | 0.306 | 0.329 | 0.764 | 0.653 | 0.652 | 0.711 | 0.327 | 0.374 | 0.491 | 0.508 | 0.556 | 0.651 | 0.567 | 0.624 | 0.708
3 | NCI-H1623 | – | – | – | – | – | – | – | – | – | 0.491 | 0.595 | 0.526 | 0.6 | – | – | – | – | –
4 | HCC-44 | 0.613 | 0.562 | 0.477 | 0.679 | 0.556 | 0.986 | 0.952 | 0.883 | 0.987 | 1.38 | 1.07 | 1.03 | 0.957 | 1.03 | 0.946 | 0.997 | 1.12 | 1.08
5 | EKVX | 0.466 | 0.468 | 0.425 | 0.411 | 0.463 | 0.863 | 0.929 | 0.839 | 0.788 | 0.909 | 0.925 | 0.618 | 0.803 | 0.699 | 0.687 | 0.632 | 0.732 | 0.596
6 | NCI-H1651 | 0.551 | 0.564 | 0.607 | 0.523 | 0.639 | 0.192 | 0.202 | 0.198 | 0.175 | 0.761 | 0.836 | 0.853 | 0.734 | 0.401 | 0.472 | 0.454 | 0.447 | 0.337
7 | NCI-H1944 | 0.357 | 0.276 | 0.284 | 0.35 | 0.334 | 0.345 | 0.391 | 0.326 | 0.436 | 0.762 | 0.789 | 0.617 | 0.855 | 0.682 | 0.47 | 0.596 | 0.513 | 0.654
8 | NCI-H1703 | 0.228 | 0.254 | 0.226 | 0.208 | 0.224 | 0.497 | 0.454 | 0.357 | 0.62 | – | – | – | – | – | 0.123 | – | 0.0983 | 0.113
9 | Calu-6 | 0.886 | 0.973 | 0.946 | 0.942 | 0.909 | 0.552 | 0.598 | 0.53 | 0.531 | – | – | – | – | – | – | – | – | –
10 | EBC-1 | 0.41 | 0.386 | 0.32 | 0.343 | 0.262 | 0.712 | 0.644 | 0.626 | 0.763 | – | – | – | – | – | – | – | – | –
11 | SW 1573 | 0.432 | 0.395 | 0.453 | 0.447 | 0.365 | 0.574 | 0.583 | 0.461 | 0.46 | 0.356 | 0.168 | 0.417 | 0.229 | – | – | – | – | –
